Data: patent US20240189331A1, “NOVEL […] FILM FORMULATION” (INTELGENX CORP., priority 2021, published 2024)
“Also recorded” adds a separate entry of the source.

How the values were obtained:
[1] = In vitro permeability study in 6 station Franz diffusion cell apparatus using porcine buccal mucosa; conditions: for effect of acidifying agent in film formulation on permeation of psilocybin through pig mucosa membrane: psilocybin around its isoelectric point (pH=3.9)
[2] = cited from earlier work
[3] = administered orally; cited from earlier work

## O=C(O)CC(O)(CC(=O)O)C(=O)O [citric acid]
[1]
  effect of acidifying agent in film formulation on permeation of psilocybin through pig mucosa membrane: triggers permeation

## O=P(O)(O)O [phosphoric acid]
[1]
  effect of acidifying agent in film formulation on permeation of psilocybin through pig mucosa membrane: triggers permeation

## CN(C)CCc1c[nH]c2cccc(OP(=O)(O)O)c12 [psilocybin, [3-(2-Dimethylaminoethyl)-1H-indol-4-yl]dihydrogen phosphate]
[2]; first phosphate oxygen
  pka1: 1.3
[2]; second phosphate oxygen
  pka2: 6.5
[2]; tertiary amine group
  pka3: 10.4
[3]
  drug absorbed into the bloodstream: about 50%
  time of maximum plasma concentration: approximately 80 minutes

## Benzalkonium chloride [Benzalkonium chloride (BKC)]
[1]; penetration enhancer in psilocybin film formulation, FIG. 4 and FIG. 5
  effect of penetration enhancer on psilocybin diffusion through porcine buccal mucosa: improved buccal permeation; also recorded: significate increase
